Measured values: patent US4272437A, “Antibacterial agents, and 4-thio azetidinone intermediates” (priority 1979, dated 1981)
Converted amounts (≈) assume the structure as drawn. Read-outs that look alike come from different tables or passages of the source.

Key:
Str. pneumoniae A-9585 = assay: MIC, tube dilution, Streptococcus pneumoniae A9585; format: cell-based; settings: Streptococcus pneumoniae, A9585, Str. pneumoniae A9585; overnight 37° C., Nutrient Broth; read-out: Minimum Inhibitory Concentration (M.I.C.)
Text: (§1) Representative compounds of the present invention were subjected to in vitro antibiotic screening against a variety of microorganisms.

Str. pyogenes A-9604 = assay: MIC, tube dilution, Streptococcus pyogenes A9604; format: cell-based; settings: Streptococcus pyogenes, A9604, Str. pyogenes A9604; overnight 37° C., Nutrient Broth; read-out: Minimum Inhibitory Concentration (M.I.C.)
Text: as §1

Staph. aureus A-9537 = assay: MIC, tube dilution, Staphylococcus aureus A9537; format: cell-based; settings: Staphylococcus aureus, A9537, Staph. aureus A9537; overnight 37° C., Nutrient Broth; read-out: Minimum Inhibitory Concentration (M.I.C.)
Text: as §1

[1] = system: Staph. aureus A-9537 and 50% serum; assay: MIC, tube dilution, Staph. aureus A9537 + 50% serum; format: cell-based, Staphylococcus aureus; settings: overnight 37° C.; for MIC: Staphylococcus aureus, read-out: Minimum Inhibitory Concentration (M.I.C.)
Text: as §1

[2] = system: Staph. aureus (Pen-Res) A-9606; assay: MIC, tube dilution, Staphylococcus aureus A9606 (Pen-Res); format: cell-based; settings: Staphylococcus aureus, overnight 37° C.
Text: as §1

[3] = system: Staph. aureus (Meth-Res) A-15097; assay: MIC, tube dilution, Staphylococcus aureus A15097 (Meth-Res); format: cell-based; settings: Staphylococcus aureus, overnight 37° C.
Text: as §1

Str. faecalis A-20688 = assay: MIC, tube dilution, Streptococcus faecalis A20688; format: cell-based; settings: Enterococcus faecalis, A20688, Str. faecalis A20688; overnight 37° C.; read-out: Minimum Inhibitory Concentration (M.I.C.)
Text: as §1

E. coli A-15119 = assay: MIC, tube dilution, Escherichia coli A15119; format: cell-based; settings: overnight 37° C.; for MIC: Escherichia coli, A15119, E. coli A15119, read-out: Minimum Inhibitory Concentration (M.I.C.)
Text: as §1

E. coli A-20341-1 = assay: MIC, tube dilution, Escherichia coli A20341-1; format: cell-based
Text: as §1

K. pneumoniae A-15130 = assay: MIC, tube dilution, Klebsiella pneumoniae A15130; format: cell-based; settings: overnight 37° C.; for MIC: Klebsiella pneumoniae, A15130, K. pneumoniae A15130, read-out: Minimum Inhibitory Concentration (M.I.C.)
Text: as §1

[4] = system: Klebsiella species A20468; assay: MIC, tube dilution, Klebsiella species A20468; format: cell-based; settings: Klebsiella species (K. pneumoniae) A20468; overnight 37° C.; read-out: Minimum Inhibitory Concentration (M.I.C.)
Text: as §1

Pr. mirabilis A-9900 = assay: MIC, tube dilution, Proteus mirabilis A9900; format: cell-based; settings: overnight 37° C.; for MIC: Proteus mirabilis, A9900, Proteus mirabilis A9900, read-out: Minimum Inhibitory Concentration (M.I.C.)
Text: as §1

Pr. vulgaris A-9716 = assay: MIC, tube dilution, Proteus vulgaris / Proteus mirabilis A9716; format: cell-based, Proteus vulgaris (name changed to Proteus mirabilis); settings: overnight 37° C.; for MIC: Proteus vulgaris
Text: as §1

Pr. morganii A-15153 = assay: MIC, tube dilution, Proteus morganii A15153; format: cell-based; settings: Morganella morganii, A15153, Proteus morganii A15153; overnight 37° C.; read-out: Minimum Inhibitory Concentration (M.I.C.)
Text: as §1

[5] = system: Providencia stuartii A21205; assay: MIC, tube dilution, Providencia stuartii (Pr. rettgeri) A21205; format: cell-based; settings: for MIC: Providencia stuartii
Text: as §1

Ser. marcescens A-20019 = assay: MIC, tube dilution, Serratia marcescens A20019; format: cell-based; settings: overnight 37° C.; for MIC: Serratia marcescens, A20019, Serratia marcescens A20019, read-out: Minimum Inhibitory Concentration (M.I.C.); for Minimum Inhibitory Concentration (M.I.C.): Serratia marcescens A20019
Text: as §1

Ent. cloacae A-9659 = assay: MIC, tube dilution, Enterobacter cloacae A9659; format: cell-based; settings: overnight 37° C.; for MIC: Enterobacter cloacae, A9659, Enterobacter cloacae A9659, read-out: Minimum Inhibitory Concentration (M.I.C.); for Minimum Inhibitory Concentration (M.I.C.): Enterobacter cloacae A9659
Text: as §1

Ent. cloacae A-9656 = assay: MIC, tube dilution, Enterobacter cloacae A9656; format: cell-based; settings: overnight 37° C., read-out: Minimum Inhibitory Concentration (M.I.C.)
Text: as §1

Ps. aeruginosa A-9843A = assay: MIC, tube dilution, Pseudomonas aeruginosa A9843A; format: cell-based; settings: Pseudomonas aeruginosa, A9843A, read-out: Minimum Inhibitory Concentration (M.I.C.), Pseudomonas aeruginosa A9843A; overnight 37° C.
Text: as §1

Ps. aeruginosa A-21213 = assay: MIC, tube dilution, Pseudomonas aeruginosa A21213; format: cell-based; settings: overnight 37° C., read-out: Minimum Inhibitory Concentration (M.I.C.)
Text: as §1

[6] = Staph. aureus A9606 (Pen-Res), read-out: Minimum Inhibitory Concentration (M.I.C.)
[7] = Staph. aureus A15097 (Meth-Res), read-out: Minimum Inhibitory Concentration (M.I.C.)
[8] = Escherichia coli, A203411; E. coli A20341-1; overnight 37° C.; read-out: Minimum Inhibitory Concentration (M.I.C.)
[9] = A9716, Proteus vulgaris / Proteus mirabilis A9716, read-out: Minimum Inhibitory Concentration (M.I.C.)
[10] = A21205, Providencia stuartii (Pr. rettgeri) A21205, overnight 37° C., read-out: Minimum Inhibitory Concentration (M.I.C.)
[11] = Enterobacter cloacae, A9656, Enterobacter cloacae A9656
[12] = Escherichia coli, A203411, E. coli A20341-1; overnight 37° C.; read-out: Minimum Inhibitory Concentration (M.I.C.)
[13] = read-out: Minimum Inhibitory Concentration (M.I.C.), Staph. aureus A15097 (Meth-Res)

SMILES | MIC (Str. pneumoniae A-9585) [µg/mL] | MIC (Str. pyogenes A-9604) [µg/mL] | MIC (Staph. aureus A-9537) [µg/mL] | MIC [1] [µg/mL] | MIC [2, 6] [µg/mL] | MIC [3, 7] [µg/mL] | MIC (Str. faecalis A-20688) [µg/mL] | MIC (E. coli A-15119) [µg/mL] | MIC (E. coli A-20341-1; [8]) [µg/mL] | MIC (K. pneumoniae A-15130) [µg/mL] | MIC [4] [µg/mL] | MIC (Pr. mirabilis A-9900) [µg/mL] | MIC (Pr. vulgaris A-9716; [9]) [µg/mL] | MIC (Pr. morganii A-15153) [µg/mL] | MIC [5, 10] [µg/mL] | MIC (Ser. marcescens A-20019) [µg/mL] | MIC (Ent. cloacae A-9659) [µg/mL] | MIC (Ent. cloacae A-9656; [11]) [µg/mL] | MIC (Ps. aeruginosa A-9843A) [µg/mL] | MIC (Ps. aeruginosa A-21213; Pseudomonas aeruginosa A21213) [µg/mL] | also measured
CCC1=C(C(=O)O)N2C(=O)C[C@H]2S1 [Preparation 10, 2-Ethylpenem-3-carboxylic Acid] | 0.03 (≈ 0.151 µM) | 0.5 (≈ 2.51 µM) | 0.13 (≈ 0.653 µM) | 16 | 0.5 (≈ 2.51 µM) | 0.5 (≈ 2.51 µM) | 32 (≈ 161 µM) | 4 (≈ 20.1 µM) | 125 (≈ 627 µM) | 8 (≈ 40.2 µM) | > 125 | 4 (≈ 20.1 µM) | 4 (≈ 20.1 µM) | 8 (≈ 40.2 µM) | 4 (≈ 20.1 µM) | 4 (≈ 20.1 µM) | 16 (≈ 80.3 µM) | 16 (≈ 80.3 µM) | > 125 | 125 (≈ 627 µM) | 
O=C(O)CCC1=C(C(=O)O)N2C(=O)CC2S1 (centres unmarked) [Preparation 11, Disodium 2-(2-carboxyethyl)penem-3-carboxylate] | 0.13 | 4 | 16 | > 63 | 32 | 63 | 125 | 16 |  | 63 | > 125 | 4 | 4 | 63 | 1 | 4 | 63 | 63 | > 125 | > 125 | MIC (E. coli A-20341-1; [12]): 63 µg/mL
O=C(O)C1=C(COc2ccccc2)S[C@@H]2CC(=O)N12 [Preparation 12, 2-Phenoxymethylpenem-3-carboxylic Acid] | 0.5 (≈ 1.8 µM) | 0.5 (≈ 1.8 µM) | 1 (≈ 3.61 µM) | > 63 | 0.5 (≈ 1.8 µM) | 1 (≈ 3.61 µM) | 63 (≈ 227 µM) | 63 (≈ 227 µM) | > 125 | > 125 | > 125 | 16 (≈ 57.7 µM) | 16 (≈ 57.7 µM) | 16 (≈ 57.7 µM) | 63 (≈ 227 µM) | > 125 | > 125 |  | > 125 | > 125 | MIC (Ent. cloacae A-9656; Enterobacter cloacae A9656): > 125 µg/mL
O=C(O)C1=C(c2ccco2)SC2CC(=O)N12 (centres unmarked) [Preparation 13, 2-(2'-Furyl)penem-3-carboxylic Acid] | 1 (≈ 4.22 µM) | 1 (≈ 4.22 µM) | 1 (≈ 4.22 µM) | > 32 | 8 (≈ 33.7 µM) | 16 (≈ 67.4 µM) | 32 (≈ 135 µM) | 8 (≈ 33.7 µM) |  | 32 (≈ 135 µM) | > 63 | 4 (≈ 16.9 µM) | 4 (≈ 16.9 µM) | 32 (≈ 135 µM) | 4 (≈ 16.9 µM) | 16 (≈ 67.4 µM) | 63 (≈ 266 µM) | 63 (≈ 266 µM) | > 63 |  | MIC (E. coli A-20341-1; [12]): > 63 µg/mL; MIC (Ps. aeruginosa A-21213; Pseudomonas aeruginosa, A21213, Pseudomonas aeruginosa A21213): > 63 µg/mL
O=C([O-])C1=C(COCc2ccccc2)S[C@@H]2CC(=O)N12.[Na+] [Preparation 14 (Na^+ Salt), Sodium 2-(Benzyloxymethyl)penem-3-carboxylate] | 0.03 | 0.06 | 0.5 | 32 |  |  | 32 | 16 | > 125 | 125 | > 125 | 2 |  | 16 |  | 63 | 32 |  | > 125 | > 125 | Minimum Inhibitory Concentration (M.I.C.) [1]: 63 µg/mL; MIC ([2]; read-out: Minimum Inhibitory Concentration (M.I.C.), Staph. aureus A9606 (Pen-Res)): 32 µg/mL; MIC [3, 13]: > 125 µg/mL; Minimum Inhibitory Concentration (M.I.C.) (E. coli A-15119; E. coli A15119): 8 µg/mL; Minimum Inhibitory Concentration (M.I.C.) (K. pneumoniae A-15130; K. pneumoniae A15130): > 125 µg/mL; Minimum Inhibitory Concentration (M.I.C.) (Pr. mirabilis A-9900; Proteus mirabilis A9900): 1 µg/mL; Minimum Inhibitory Concentration (M.I.C.) (Pr. vulgaris A-9716; Proteus vulgaris / Proteus mirabilis A9716): 2 µg/mL; MIC (Pr. vulgaris A-9716; A9716, read-out: Minimum Inhibitory Concentration (M.I.C.), Proteus vulgaris / Proteus mirabilis A9716): 4 µg/mL; MIC ([5]; A21205, read-out: Minimum Inhibitory Concentration (M.I.C.)): 63 µg/mL; Minimum Inhibitory Concentration (M.I.C.) (Ser. marcescens A-20019): 125 µg/mL; Minimum Inhibitory Concentration (M.I.C.) (Ent. cloacae A-9659): 63 µg/mL; MIC (Ent. cloacae A-9656; Enterobacter cloacae A9656): 125 µg/mL
CCCC1=C(C(=O)O)N2C(=O)C[C@H]2S1 [Preparation 15, 2-Propylpenem-3-carboxylic Acid] | 1 (≈ 4.69 µM) | 8 (≈ 37.5 µM) | 1 (≈ 4.69 µM) | > 63 | 16 (≈ 75 µM) |  | 63 (≈ 295 µM) | 16 (≈ 75 µM) | > 125 | > 125 | > 125 | 16 (≈ 75 µM) | 16 (≈ 75 µM) | 63 (≈ 295 µM) | 16 (≈ 75 µM) | 63 (≈ 295 µM) | > 125 | 63 (≈ 295 µM) | > 125 | > 125 | MIC [3, 13]: 125 µg/mL (≈ 586 µM); Minimum Inhibitory Concentration (M.I.C.) ([5]; Providencia stuartii (Pr. rettgeri) A21205, overnight 37° C.): 32 µg/mL; Minimum Inhibitory Concentration (M.I.C.) (Ser. marcescens A-20019): 125 µg/mL; Minimum Inhibitory Concentration (M.I.C.) (Ent. cloacae A-9659): 125 µg/mL; MIC (Ent. cloacae A-9656; Enterobacter cloacae A9656): 125 µg/mL (≈ 586 µM)
